Measured values: US7465453B2, “Polypeptide fragments of CKLF1” (Peking University, priority 2004, dated 2008)
Entries after “also recorded” stand apart in the source; their conditions may differ.

What was measured:
[1] = biological target: T1, CCR5 (Homo sapiens, UniProt P51681); assay: Calcium flux assay in CCR5-transfected HEK293 cells; type: cell-based; conditions: for calcium flux: CCR5-transfected HEK293 cells, 167 nM C27 or C19, 100 nM RANTES; for desensitization of transfectants to subsequent RANTES treatment: CCR5 transfectants, first 167 nM peptide, then 100 nM RANTES
T1 construct: The cDNA fragments covering the open reading frames for various chemokine receptors were obtained as follows; expressed in transfected cells; host or cells: HEK293 (transient, electroporation)
Source text: The cDNA fragments covering the open reading frames for various chemokine receptors were obtained as follows. CCR4, CCR5 and CCR6 receptors were cloned from a K562 cell cDNA library by polymerase chain reaction (PCR). The primers were designed using the sequences from the following GenBank™ submissions: CCR4 (NM_005508.2), CCR5 (NM_000579) and CCR6 (AY242126). The fragments were cloned into an expression vector pcDI (modified in our lab from pcDNA3 vector (Invitrogen), in which the part between BgI II-Kpn I was replaced by the fragment of pCl vector (Promega) digested with BgI II-Kpn I) or pEGFP-N1 vector (CLONTECH) for efficient expression in HEK293 cells. The sequences coding receptors in expression plasmids were confirmed by DNA sequencing, which is consistent with the sequence submitted in GenBank™.
HEK293 cells were grown in RPMI 1640 supplemented with 10% heat-inactivated FBS, penicillin (100 U/ml) and streptomycin (100 μg/ml). Every 4×10^6 HEK293 cells in 400 μl were transiently transfected by electroporation with 15 μg of the expression plasmid at 120 V, 20 ms using an electric pulse generator (Electro Square Porator ECM 830, BTX, San Diego, Calif.), and calcium mobilization assay and chemotaxis assays were performed 48 hours later.
HEK293 cells transfected with pcDI-CCR4 or pcDI-CCR5 were grown in specialized glass-bottom microwell dishes (MatTek Corporation, U.S.A.) and loaded with 10 μM fluo-3/AM in HEPES-buffered saline at 37° C. for 1 hour in the dark. The cells were rinsed with HEPES-buffered saline and stimulated with 167 nM secreted CKLF1 peptides and 100 nM TARC or RANTES, respectively. Fluorescence was monitored at 488 nm (excitation wavelength) and 530 nm (emission wavelength) every 5 second using a Leica TCS-NT confocal fluorescence microscope with a 40× oil immersion lens (Wetzler, Heidelberg, Germany). The measurement was completed at room temperature and each field of cells was selected at random. Images were collected at 5 second intervals for 405 seconds. The images were analyzed for relative fluorescence using Leica confocal software. The relative fluorescence was determined using Microsoft Excel. All calcium flux assays were performed in the presence of extracellular calcium (in the absence of EDTA or EGTA) in the assay buffers. Therefore, both intracellular calcium release and extracellular calcium influx were analyzed.

[2] = system: U937 cells; assay: Chemotaxis of U937 cells; type: cell-based; conditions: for migration (chemotaxis) of U937 cells: C19, C27, RANTES: U937 cells stimulated by 30 ng/ml IFN-γ
Experimental: The chemotaxis assay was performed using a 48-well microchemotaxis chamber (Neutroprobe, Cabin John, Md., U.S.A.). U937 cells were stimulated by 30 ng/ml IFN-γ for 4 days because IFN-γ could increase the expression of chemokine receptors CCR1, CCR3, and CCR5 in U937 cells. Then part cells were incubated with mouse anti CCR5 100 μg/ml, and/or rat anti CCR3 10 μg/ml for 30 minutes at 37° C., and corresponding mouse IgG and rat IgG as controls. Chemoattractants RANTES, C19 and C27 were diluted in HEPES-buffered RPMI 1640 medium supplemented with 0.5% BSA to indicate concentration, and placed in the lower wells (28 μl/well). U937 cells stimulated by IFN-γ were resuspended in the same medium at 1×10^6 cells/ml and added to the upper wells (50 μl/well), which were separated from the lower wells by a polyvinylpyrrolidone-free polycarbonate filter with 5-μm pores pre-coated by 0.001% fibronectin. The chamber was incubated for 2 hours at 37° C. in 5% CO2 and 95% air. Filters were removed from the chamber, washed, fixed, and stained with Three Step Stain Set. Cells that migrated were counted in 5 randomly selected high power fields (400×) per well. The group with no Chemoattractants in the lower wells was used as a control. All samples were assayed twice at least. The chemotactic index (CI) was calculated from the number of cells that migrated to the control. Significant chemotaxis was defined as CI>2.

[3] = system: OVA-sensitized murine asthma model; assay: OVA-sensitized murine asthma model; type: in vivo, C57BL/6 mice; conditions: for airway hyperreactivity: OVA-sensitized and challenged mice, i.p. pretreatment
Experimental: C57BL/6 mice (20-25 g) of either sex were sensitized by an i.p. injection (100 μl) of 20 μg chicken OVA (Sigma-Aldrich, St. Louis, Mo.) emulsified in Imject alum (2.25 mg Al(OH)3/2 mg Mg(OH)2) (Pierce, Rockfield, Ill.) on days 0 and 14. Mice were injected with 1, 10, or 100 μg of C27 or C19 i.p, and thirty minutes later, these mice were subsequently challenged with an aerosol generated from 1% OVA in saline (OVA), or saline alone, for 20 min by ultrasonic nebulization (DeVilbiss, Somerset, Pa.). This procedure was repeated daily on days 24, 25, and 26. The mice were assessed on day 28.

T1 sequence (P51681 whole entry, the tested form may be a part): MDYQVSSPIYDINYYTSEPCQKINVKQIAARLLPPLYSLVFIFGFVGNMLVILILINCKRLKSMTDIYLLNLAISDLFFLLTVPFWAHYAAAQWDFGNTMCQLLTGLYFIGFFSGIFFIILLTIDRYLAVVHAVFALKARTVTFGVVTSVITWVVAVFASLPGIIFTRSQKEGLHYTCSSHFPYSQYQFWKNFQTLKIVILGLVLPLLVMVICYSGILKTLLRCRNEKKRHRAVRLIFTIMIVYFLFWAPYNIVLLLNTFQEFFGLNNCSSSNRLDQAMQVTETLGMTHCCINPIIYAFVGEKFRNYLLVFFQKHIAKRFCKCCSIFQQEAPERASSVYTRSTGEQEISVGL

## ALIYRKL LFNPSGPYQKKPVHEKKEVL (ALIYRKLLFNPSGPYQKKPVHEKKEVL; listed as Homo sapiens) [C27]
[1]
  calcium flux: a strong calcium flux
  desensitization of transfectants to subsequent RANTES treatment: could desensitize
[2]
  migration (chemotaxis) of U937 cells: could induce migration
[2]; IFN-γ-stimulated U937 cells, mouse anti CCR5 and/or rat anti CCR3
  chemotactic activity after neutralization of chemokine receptors: had no chemotactic activity; also recorded: obviously inhibited
[3]
  airway hyperreactivity: small, but not statistically significant, increase
[3]; doses ranging from 1 to 100 μg/mouse i.p., vs positive control group
  inhibition of the eosinophil infiltration into the BAL fluid: did not demonstrate any inhibition

## FNPSGPYQKKPVHEKKEVL (listed as Homo sapiens) [C19]
[1]
  calcium flux: a strong calcium flux
  desensitization of transfectants to subsequent RANTES treatment: could desensitize
[2]
  migration (chemotaxis) of U937 cells: could induce migration
[3]; 1 μg/mouse i.p., vs positive control group
  inhibition of eosinophil recruitment into the airways (BAL fluid analysis): 78%
[3]; 10 μg/mouse i.p., vs positive control group
  inhibition of eosinophil recruitment into the airways (BAL fluid analysis): 69%
[3]; 100 μg/mouse i.p., vs positive control group
  inhibition of eosinophil recruitment into the airways (BAL fluid analysis): 74%
[3]
  airway hyperreactivity: significant decrease
